Assay results published in ChEMBL document CHEMBL5647694, “Novel orally bioavailable EZH1/2 dual inhibitors with greater antitumor efficacy than an EZH2 selective inhibitor” (Cancer Sci, 2017).

Legend:
[1] = target: Protein kinase C epsilon type (Homo sapiens) (UniProt Q02156); assay: Inhibition of N-terminal GST-fused human full length PKC-epsilon (1 to 737 residues ) expressed in baculovirus expression system using PKC peptide as substrate at 1 uM in presence of ATP by Mobility shift assay
[2] = target: Platelet-derived growth factor receptor alpha (Homo sapiens) (UniProt P16234); assay: Inhibition of N-terminal GST-tagged human PDGFR-alpha cytoplasmic domain (550 to 1089 residues) expressed in baculovirus-infected Sf21 cells using CSKtide as substrate at 1 uM in presence of ATP by Mobility shift assay
[3] = target: cAMP-dependent protein kinase catalytic subunit PRKX (Homo sapiens) (UniProt P51817); assay: Inhibition of N-terminal GST-fused full length human PRKX (1 to 358 residues) expressed in baculovirus expression system using Kemptide as substrate at 1 uM in presence of ATP by Mobility shift assay
[4] = target: Serine/threonine-protein kinase MRCK beta (Homo sapiens) (UniProt Q9Y5S2); assay: Inhibition of N-terminal GST-fused truncated human MRCKbeta (1 to 473 residues) expressed in baculovirus expression system using DAPK1tide as substrate at 1 uM in presence of ATP by Mobility shift assay
[5] = target: Vascular endothelial growth factor receptor 1 (Homo sapiens) (UniProt P17948); assay: Inhibition of N-terminal GST-fused human FLT1 cytoplasmic domain (781 to 1338 residues) expressed in baculovirus-infected Sf21 cells using CSKtide as substrate at 1 uM in presence of ATP by Mobility shift assay
[6] = target: Dual specificity tyrosine-phosphorylation-regulated kinase 2 (Homo sapiens) (UniProt Q92630); assay: Inhibition of N-terminal GST-fused full length human DYRK2 (1 to 528 residues) expressed in baculovirus expression system using DYRKtide-F as substrate at 1 uM in presence of ATP by Mobility shift assay
[7] = target: Ribosomal protein S6 kinase beta-1 (Homo sapiens) (UniProt P23443); assay: Inhibition of N-terminal GST-fused human p70S6K catalytic domain (1 to 421 residues) expressed in baculovirus expression system using S6K2 peptide as substrate at 1 uM in presence of ATP by Mobility shift assay
[8] = target: Tyrosine-protein kinase FRK (Homo sapiens) (UniProt P42685); assay: Inhibition of N-terminal GST-fused human FRK catalytic domain (223 to 505 residues) expressed in baculovirus-infected Sf21 cells using Srctide as substrate at 1 uM in presence of ATP by Mobility shift assay
[9] = target: ALK tyrosine kinase receptor (Homo sapiens) (UniProt Q9UM73); assay: Inhibition of N-terminal GST-fused wild type human ALK cytoplasmic domain (1058 to 1620 residues ) expressed in baculovirus-infecetd Sf21 cells using Srctide as substrate at 1 uM in presence of ATP by Mobility shift assay
[10] = target: Serine/threonine-protein kinase TAO2 (Homo sapiens) (UniProt Q9UL54); assay: Inhibition of N-terminal GST-fused human TAOK2 catalytic domain (1 to 319 residues) expressed in baculovirus expression system using TAOKtide as substrate at 1 uM in presence of ATP by Mobility shift assay
[11] = target: Cyclin-dependent kinase 5/CDK5 activator 1 (Homo sapiens) (UniProt Q00535+Q15078); assay: Inhibition of N-terminal GST-tagged full length human CDK5 (1 to 292 residues)/N-terminal GST-tagged human p25 (99 to 307 residues) expressed in baculovirus-infected Sf21 cells using Modified Histone H1 as substrate at 1 uM in presence of ATP by Mobility shift assay
[12] = target: CDK2/Cyclin A2 (Homo sapiens) (UniProt P24941+P20248); assay: Inhibition of N-terminal GST-tagged full length human CDK2 (1 to 298 residues)/GST-tagged human CyclinA2 (1 to 432 residues) expressed in baculovirus-infected Sf21 cells using Modified Histone H1 as substrate at 1 uM in presence of ATP by Mobility shift assay
[13] = target: Mitogen-activated protein kinase 13 (Homo sapiens) (UniProt O15264); assay: Inhibition of N-terminal GST-fused full length human p38delta (1 to 365 residues) expressed in Escherichia coli expression system using Modified Erktide as substrate at 1 uM in presence of ATP by Mobility shift assay
[14] = target: Serine/threonine-protein kinase 4 (Homo sapiens) (UniProt Q13043); assay: Inhibition of N-terminal GST-fused full length human MST1 (1 to 487 residues) expressed in baculovirus expression system using IRS1 as substrate at 1 uM in presence of ATP by Mobility shift assay
[15] = target: Serine/threonine-protein kinase pim-2 (Homo sapiens) (UniProt Q9P1W9); assay: Inhibition of N-terminal GST-tagged full length human PIM2 (1 to 311 residues) expressed in baculovirus expression system using S6K2 peptide as substrate at 1 uM in presence of ATP by Mobility shift assay
[16] = target: Tyrosine-protein kinase Fer (Homo sapiens) (UniProt P16591); assay: Inhibition of N-terminal GST-fused full length human FER (1 to 822 residues) expressed in baculovirus-infected Sf21 cells using Srctide as substrate at 1 uM in presence of ATP by Mobility shift assay
[17] = target: PAS domain-containing serine/threonine-protein kinase (Homo sapiens) (UniProt Q96RG2); assay: Inhibition of N-terminal GST-fused human PASK catalytic domain (949 to 1323 residues) expressed in baculovirus expressing system using GS peptide as substrate at 1 uM in presence of ATP by Mobility shift assay
[18] = target: Muscle, skeletal receptor tyrosine-protein kinase (Homo sapiens) (UniProt O15146); assay: Inhibition of N-terminal GST-fused human MUSK catalytic domain (527 to 869 residues) expressed in baculovirus-infected Sf21 cells using CSKtide as substrate at 1 uM in presence of ATP by Mobility shift assay
[19] = target: NUAK family SNF1-like kinase 1 (Homo sapiens) (UniProt O60285); assay: Inhibition of N-terminal GST-fused full length human Nuak1 (1 to 661 residues) expressed in baculovirus expression system using CHKtide as substrate at 1 uM in presence of ATP by Mobility shift assay
[20] = target: CDK6/cyclin D3 (Homo sapiens) (UniProt P30281+Q00534); assay: Inhibition of N-terminal GST-tagged full length human CDK6 (1 to 326 residues)/GST-tagged human CyclinD3 (1 to 292 residues) expressed in baculovirus-infected Sf21 cells using DYRKtide-F as substrate at 1 uM in presence of ATP by Mobility shift assay
[21] = target: Interleukin-1 receptor-associated kinase 4 (Homo sapiens) (UniProt Q9NWZ3); assay: Inhibition of N-terminal GST-fused full length human IRAK4 (1 to 460 residues) expressed in baculovirus expression system using IRAK1 peptide as substrate at 1 uM in presence of ATP by Mobility shift assay
[22] = target: Inhibitor of nuclear factor kappa-B kinase subunit epsilon (Homo sapiens) (UniProt Q14164); assay: Inhibition of N-terminal GST-fused full length human IKK-epsilon(1 to 716 residues) expressed in baculovirus expression system using IkBalpha peptide as substrate at 1 uM in presence of ATP by Mobility shift assay
Chain of Inhibitor of nuclear factor kappa-B kinase subunit epsilon (Homo sapiens) (Q14164 whole entry, the tested form may be a part): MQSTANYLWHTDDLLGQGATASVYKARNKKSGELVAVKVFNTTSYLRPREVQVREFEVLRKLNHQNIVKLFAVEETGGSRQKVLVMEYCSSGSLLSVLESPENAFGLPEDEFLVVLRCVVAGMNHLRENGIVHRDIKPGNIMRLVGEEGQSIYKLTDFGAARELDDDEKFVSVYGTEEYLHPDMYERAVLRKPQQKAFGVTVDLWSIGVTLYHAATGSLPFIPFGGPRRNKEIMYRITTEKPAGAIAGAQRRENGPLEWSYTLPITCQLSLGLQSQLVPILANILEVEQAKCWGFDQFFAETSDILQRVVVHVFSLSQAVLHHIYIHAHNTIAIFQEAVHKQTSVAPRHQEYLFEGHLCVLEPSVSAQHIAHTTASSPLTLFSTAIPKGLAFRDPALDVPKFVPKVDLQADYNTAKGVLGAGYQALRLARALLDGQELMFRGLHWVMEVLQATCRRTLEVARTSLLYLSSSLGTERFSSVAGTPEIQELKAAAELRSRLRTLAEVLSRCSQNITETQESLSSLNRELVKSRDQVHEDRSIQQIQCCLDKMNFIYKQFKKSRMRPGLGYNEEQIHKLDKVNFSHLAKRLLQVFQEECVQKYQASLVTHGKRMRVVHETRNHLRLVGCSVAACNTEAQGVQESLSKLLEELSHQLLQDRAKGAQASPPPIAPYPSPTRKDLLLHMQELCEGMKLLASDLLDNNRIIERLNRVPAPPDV

Chain of Tyrosine-protein kinase Fer (Homo sapiens) (P16591 whole entry, looked up, the tested form may be a part): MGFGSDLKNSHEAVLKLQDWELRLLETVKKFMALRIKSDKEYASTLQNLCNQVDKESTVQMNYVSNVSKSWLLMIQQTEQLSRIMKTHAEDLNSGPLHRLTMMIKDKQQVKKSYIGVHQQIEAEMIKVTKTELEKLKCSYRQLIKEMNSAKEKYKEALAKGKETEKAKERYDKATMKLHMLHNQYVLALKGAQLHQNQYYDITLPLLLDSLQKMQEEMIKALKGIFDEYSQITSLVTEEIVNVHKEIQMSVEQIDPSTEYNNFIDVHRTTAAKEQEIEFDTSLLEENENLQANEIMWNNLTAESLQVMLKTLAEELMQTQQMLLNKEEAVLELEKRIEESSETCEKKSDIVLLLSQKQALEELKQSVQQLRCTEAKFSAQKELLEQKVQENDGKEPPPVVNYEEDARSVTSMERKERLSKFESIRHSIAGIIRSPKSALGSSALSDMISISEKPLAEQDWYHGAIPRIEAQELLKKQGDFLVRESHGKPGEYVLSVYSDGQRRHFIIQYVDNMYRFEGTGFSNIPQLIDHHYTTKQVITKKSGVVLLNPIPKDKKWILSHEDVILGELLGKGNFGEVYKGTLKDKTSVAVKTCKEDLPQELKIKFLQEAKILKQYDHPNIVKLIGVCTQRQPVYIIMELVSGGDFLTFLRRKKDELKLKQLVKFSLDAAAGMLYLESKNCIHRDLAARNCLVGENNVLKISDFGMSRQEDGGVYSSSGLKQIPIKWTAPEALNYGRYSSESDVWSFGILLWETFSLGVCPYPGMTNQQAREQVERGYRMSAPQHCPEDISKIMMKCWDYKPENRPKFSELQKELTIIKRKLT
Chain of Mitogen-activated protein kinase 13 (Homo sapiens) (O15264 whole entry, the tested form may be a part): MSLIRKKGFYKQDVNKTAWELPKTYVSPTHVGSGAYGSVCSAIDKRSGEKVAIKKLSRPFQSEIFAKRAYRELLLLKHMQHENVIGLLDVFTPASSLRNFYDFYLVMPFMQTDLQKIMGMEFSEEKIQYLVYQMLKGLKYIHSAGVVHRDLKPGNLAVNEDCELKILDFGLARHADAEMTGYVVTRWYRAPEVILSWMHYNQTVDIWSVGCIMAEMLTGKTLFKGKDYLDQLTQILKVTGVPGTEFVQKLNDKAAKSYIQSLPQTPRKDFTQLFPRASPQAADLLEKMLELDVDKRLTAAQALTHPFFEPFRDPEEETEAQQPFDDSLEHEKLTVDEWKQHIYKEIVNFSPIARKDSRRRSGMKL
Chain of Cyclin-dependent kinase 5/CDK5 activator 1 (Homo sapiens) (Q00535 whole entry, the tested form may be a part): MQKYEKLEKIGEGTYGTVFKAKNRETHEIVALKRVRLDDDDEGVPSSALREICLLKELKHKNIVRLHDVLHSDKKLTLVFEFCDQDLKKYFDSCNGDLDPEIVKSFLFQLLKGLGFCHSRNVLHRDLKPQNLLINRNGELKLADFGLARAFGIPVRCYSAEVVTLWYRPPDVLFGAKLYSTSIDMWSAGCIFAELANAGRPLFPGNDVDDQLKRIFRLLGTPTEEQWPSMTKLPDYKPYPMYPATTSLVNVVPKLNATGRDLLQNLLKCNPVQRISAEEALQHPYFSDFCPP
Chain of Cyclin-dependent kinase 5/CDK5 activator 1 (Homo sapiens) (Q15078 99-307 partner limits assumed): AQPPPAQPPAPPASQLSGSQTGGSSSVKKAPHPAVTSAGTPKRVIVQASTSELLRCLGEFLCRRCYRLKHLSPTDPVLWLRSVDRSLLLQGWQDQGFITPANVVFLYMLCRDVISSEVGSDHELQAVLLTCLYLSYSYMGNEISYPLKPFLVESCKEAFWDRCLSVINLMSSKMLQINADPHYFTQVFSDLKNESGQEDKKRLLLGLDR
Chain of Muscle, skeletal receptor tyrosine-protein kinase (Homo sapiens) (O15146 whole entry, the tested form may be a part): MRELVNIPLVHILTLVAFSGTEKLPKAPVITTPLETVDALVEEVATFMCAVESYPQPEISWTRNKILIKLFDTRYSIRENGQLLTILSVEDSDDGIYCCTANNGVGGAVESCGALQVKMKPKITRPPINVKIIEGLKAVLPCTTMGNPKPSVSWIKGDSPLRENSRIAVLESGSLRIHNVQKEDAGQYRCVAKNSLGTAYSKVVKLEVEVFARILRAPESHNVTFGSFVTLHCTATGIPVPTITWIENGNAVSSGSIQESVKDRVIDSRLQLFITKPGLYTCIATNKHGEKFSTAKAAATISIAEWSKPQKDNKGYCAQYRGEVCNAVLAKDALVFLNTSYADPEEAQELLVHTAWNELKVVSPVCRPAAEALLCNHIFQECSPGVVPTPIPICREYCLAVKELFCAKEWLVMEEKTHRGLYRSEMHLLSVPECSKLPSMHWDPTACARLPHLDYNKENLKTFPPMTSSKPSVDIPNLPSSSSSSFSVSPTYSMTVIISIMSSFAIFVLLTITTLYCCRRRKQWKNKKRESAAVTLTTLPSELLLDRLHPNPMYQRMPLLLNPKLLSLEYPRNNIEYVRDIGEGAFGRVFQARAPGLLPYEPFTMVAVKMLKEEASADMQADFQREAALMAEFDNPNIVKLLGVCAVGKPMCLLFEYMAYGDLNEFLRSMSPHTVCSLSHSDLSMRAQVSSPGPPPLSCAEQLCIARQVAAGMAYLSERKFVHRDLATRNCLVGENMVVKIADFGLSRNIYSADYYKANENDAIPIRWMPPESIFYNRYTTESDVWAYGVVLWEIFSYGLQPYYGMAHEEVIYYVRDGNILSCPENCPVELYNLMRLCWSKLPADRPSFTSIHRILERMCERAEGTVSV
Chain of Ribosomal protein S6 kinase beta-1 (Homo sapiens) (P23443 whole entry, looked up, the tested form may be a part): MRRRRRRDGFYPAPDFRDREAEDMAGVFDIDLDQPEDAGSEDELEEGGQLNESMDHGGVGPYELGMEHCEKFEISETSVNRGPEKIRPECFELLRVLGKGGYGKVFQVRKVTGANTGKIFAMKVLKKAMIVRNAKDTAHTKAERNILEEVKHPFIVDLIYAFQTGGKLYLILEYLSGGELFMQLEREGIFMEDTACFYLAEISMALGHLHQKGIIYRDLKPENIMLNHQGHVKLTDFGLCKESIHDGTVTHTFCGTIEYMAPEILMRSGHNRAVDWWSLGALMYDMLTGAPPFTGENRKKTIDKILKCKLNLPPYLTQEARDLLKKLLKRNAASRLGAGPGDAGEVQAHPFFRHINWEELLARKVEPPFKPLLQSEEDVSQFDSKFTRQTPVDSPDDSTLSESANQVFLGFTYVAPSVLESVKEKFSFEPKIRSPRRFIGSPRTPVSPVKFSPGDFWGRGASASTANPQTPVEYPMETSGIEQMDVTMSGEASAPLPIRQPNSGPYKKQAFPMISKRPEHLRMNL
Chain of Tyrosine-protein kinase FRK (Homo sapiens) (P42685 whole entry, the tested form may be a part): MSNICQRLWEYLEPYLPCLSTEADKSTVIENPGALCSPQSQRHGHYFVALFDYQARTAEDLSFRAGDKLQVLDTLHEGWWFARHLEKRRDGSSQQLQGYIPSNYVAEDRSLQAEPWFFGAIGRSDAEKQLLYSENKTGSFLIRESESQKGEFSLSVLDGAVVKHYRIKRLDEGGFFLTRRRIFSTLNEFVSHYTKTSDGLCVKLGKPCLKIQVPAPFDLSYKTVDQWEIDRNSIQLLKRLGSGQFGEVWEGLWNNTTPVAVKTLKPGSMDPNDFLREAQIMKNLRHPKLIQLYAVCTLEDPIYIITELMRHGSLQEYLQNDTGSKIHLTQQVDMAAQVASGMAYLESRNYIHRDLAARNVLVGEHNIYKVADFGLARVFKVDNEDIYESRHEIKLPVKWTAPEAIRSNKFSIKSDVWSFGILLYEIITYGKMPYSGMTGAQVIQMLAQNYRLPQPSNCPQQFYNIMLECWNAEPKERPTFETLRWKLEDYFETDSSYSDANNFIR
Chain of Dual specificity tyrosine-phosphorylation-regulated kinase 2 (Homo sapiens) (Q92630 whole entry, the tested form may be a part): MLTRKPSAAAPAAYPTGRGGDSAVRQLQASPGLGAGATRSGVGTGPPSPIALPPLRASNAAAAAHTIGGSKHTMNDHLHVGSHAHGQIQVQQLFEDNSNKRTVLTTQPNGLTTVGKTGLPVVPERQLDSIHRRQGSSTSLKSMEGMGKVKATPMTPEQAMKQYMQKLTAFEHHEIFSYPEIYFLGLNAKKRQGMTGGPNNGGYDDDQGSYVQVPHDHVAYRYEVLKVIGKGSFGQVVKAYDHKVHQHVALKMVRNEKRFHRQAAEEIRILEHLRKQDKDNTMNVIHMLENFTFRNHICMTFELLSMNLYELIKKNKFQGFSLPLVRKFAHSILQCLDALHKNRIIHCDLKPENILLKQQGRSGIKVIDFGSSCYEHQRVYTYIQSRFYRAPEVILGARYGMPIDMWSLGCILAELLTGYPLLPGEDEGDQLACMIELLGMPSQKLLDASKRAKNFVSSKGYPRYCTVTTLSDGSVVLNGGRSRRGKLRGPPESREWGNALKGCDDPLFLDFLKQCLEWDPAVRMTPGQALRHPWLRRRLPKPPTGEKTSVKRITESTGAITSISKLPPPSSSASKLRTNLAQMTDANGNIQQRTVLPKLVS

SMILES: Cc1cc(C)c(CNC(=O)c2cc(Br)c3c(c2C)O[C@@](C)([C@H]2CC[C@H](N(C)C)CC2)O3)c(=O)[nH]1
- inhibition [1]: 17%
- inhibition [2]: -6.1%
- inhibition [3]: -0.6%
- inhibition [4]: -1%
- inhibition [5]: -4.4%
- inhibition [6]: -2.3%
- inhibition [7]: 4.3%
- inhibition [8]: -3.6%
- inhibition [9]: -2.8%
- inhibition [10]: -2.8%
- inhibition [11]: 5.9%
- inhibition [12]: -0.3%
- inhibition [13]: -4.7%
- inhibition [14]: -2.7%
- inhibition [15]: -3.9%
- inhibition [16]: 0.1%
- inhibition [17]: -3.7%
- inhibition [18]: -5.1%
- inhibition [19]: -1.7%
- inhibition [20]: -8.9%
- inhibition [21]: -5.6%
- inhibition [22]: -5.6%

SMILES: Cc1cc(C)c(CNC(=O)c2cc(Cl)c3c(c2C)O[C@@](C)([C@H]2CC[C@H](N(C)C)CC2)O3)c(=O)[nH]1 [VALEMETOSTAT]
- inhibition [1]: 16.4%
- inhibition [2]: -4.4%
- inhibition [3]: -1.9%
- inhibition [4]: -1.3%
- inhibition [5]: -5.2%
- inhibition [6]: 6%
- inhibition [7]: 1.5%
- inhibition [8]: -4.5%
- inhibition [9]: -9.1%
- inhibition [10]: -0.5%
- inhibition [11]: -2.4%
- inhibition [12]: 3%
- inhibition [13]: -6.9%
- inhibition [14]: -1.9%
- inhibition [15]: -1.4%
- inhibition [16]: -3.7%
- inhibition [17]: -5.8%
- inhibition [18]: -5.5%
- inhibition [19]: 3%
- inhibition [20]: -4.9%
- inhibition [21]: -4.1%
- inhibition [22]: -2.8%
